# Assay results: publication PMC3890372 (Nature communications, 2013)
# Columns and labels:
# [1] = target: T1, Drosophila Smo CRD (Smoothened) (Drosophila melanogaster, UniProt P91682); test: Bio-Layer Interferometry; format: binding
# T1 sequence (P91682 85-202): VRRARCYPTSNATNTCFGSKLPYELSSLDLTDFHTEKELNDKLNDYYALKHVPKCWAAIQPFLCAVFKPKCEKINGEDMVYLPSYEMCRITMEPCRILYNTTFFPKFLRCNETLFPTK
# [2] = target: T2, human Smo CRD (Smoothened) (Homo sapiens, UniProt Q99835); test: Bio-Layer Interferometry; format: binding
# T2 sequence (Q99835 65-177): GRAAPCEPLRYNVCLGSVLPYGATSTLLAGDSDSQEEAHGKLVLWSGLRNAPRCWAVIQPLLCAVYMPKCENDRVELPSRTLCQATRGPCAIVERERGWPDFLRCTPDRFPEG
smiles,measurement,setting,value
"CCCC1O[C@@H]2C[C@H]3[C@@H]4CCC5=CC(=O)C=C[C@]5(C)[C@H]4[C@@H](O)C[C@]3(C)[C@]2(C(=O)CO)O1 (some centres unmarked) [Bud, budesonide]",Kd,[1],120 ± 98 µM
same,Kd,[2],52 ± 16 µM
